Results taken from US20060135589A1, “1h-Indazole-3-carboxamide compounds as cyclin dependent kinase (cdk) inhibitors” (Astex Technology, Inc., priority 2002, published 2006).

What follows are compounds tested against T1, CDK2/CyclinA (Homo sapiens, UniProt P24941) (assay: Measurement of CDK2 kinase inhibitory activity (IC50), 33P-ATP / histone H1 filter assay).
T1 construct: purchased Upstate Biotechnology
Format: biochemical
Experimental: Measurement of CDK2 Kinase Inhibitory Activity (IC50)
Compounds of the invention were tested for kinase inhibitory activity using the following protocol.
1.7 μl of active CDK2/CyclinA (Upstate Biotechnology, 10 U/μl) is diluted in assay buffer (250 μl of 10× strength assay buffer (200 mM MOPS pH 7.2, 250 mM β-glycerophosphate, 50 mM EDTA, 150 mM MgCl2), 11.27 μl 10 mM ATP, 2.5 μl 1M DTT, 25 μl 100 mM sodium orthovanadate, 708.53 μl H2O), and 10 μl mixed with 10 μl of histone substrate mix (60 μl bovine histone H1 (Upstate Biotechnology, 5 mg/ml), 940 μl H2O, 35 μCi γ^33P-ATP) and added to 96 well plates along with 5 μl of various dilutions of the test compound in DMSO (up to 2.5%). The reaction is allowed to proceed for 5 hours before being stopped with an excess of ortho-phosphoric acid (30 μl at 2%).
γ^33P-ATP which remains unincorporated into the histone H1 is separated from phosphorylated histone H1 on a Millipore MAPH filter plate. The wells of the MAPH plate are wetted with 0.5% orthophosphoric acid, and then the results of the reaction are filtered with a Millipore vacuum filtration unit through the wells. Following filtration, the residue is washed twice with 200 μl of 0.5% orthophosphoric acid. Once the filters have dried, 25 μl of Microscint 20 scintillant is added, and then counted on a Packard Topcount for 30 seconds.

| SMILES | inhibition at 50 µM |
| --- | --- |
| CC(=O)N1CCC(NC(=O)c2n[nH]c3ccccc23)CC1 [Example 68, 1H-Indazole-3-carboxylic acid (1-acetyl-piperidin-4-yl)-amide] | ≥ 50% |
| O=C(Nc1ccc(F)cc1)c1n[nH]c2cccc(Br)c12 [Example 71, 4-Bromo-1H-indazole-3-carboxylic acid (4-fluoro-phenyl)-amide] | ≥ 50% |
| Cc1ccc2[nH]nc(C(=O)Nc3ccc(F)cc3)c2c1 [Example 72, 5-Methyl-1H-indazole-3-carboxylic acid (4-fluoro-phenyl)-amide] | ≥ 50% |
| O=C(Nc1ccc(F)cc1)c1n[nH]c2cc(Br)ccc12 [Example 73, 6-Bromo-1H-indazole-3-carboxylic acid (4-fluoro-phenyl)-amide] | ≥ 50% |
| CS(=O)(=O)c1cccc(NC(=O)c2n[nH]c3ccc([N+](=O)[O-])cc23)c1 [Example 78] | ≥ 50% |
| O=C(Nc1ccccc1)c1n[nH]c2ccc(F)cc12 [Example 80] | ≥ 50% |
| COC(=O)N1CCC(NC(=O)c2n[nH]c3ccc(Cl)cc23)C1 (stereo not drawn) [Example 81, 3-[(5-Chloro-1H-indazole-3-carbonyl)-amino]-pyrrolidine-1-carboxylic acid methyl ester] | ≥ 50% |
| O=C(Nc1ccccc1)c1n[nH]c2ccc(N3CCCC3)cc12 [Example 84, 5-pyrrolidin-1-yl-1H-indazole-3-carboxylic acid phenylamide] | ≥ 50% |
| O=C(Nc1ccccc1)c1n[nH]c2ccc(-c3ccccc3-c3ccccc3)cc12 [Example 85, 5-Biphenyl-2-yl-1H-indazole-3-carboxylic acid phenylamide] | ≥ 50% |

Second part, the compound after the results:

| inhibition at 50 µM | SMILES |
| --- | --- |
| ≥ 50% | CC(=O)NCc1ccc(NC(=O)c2n[nH]c3ccc(Cl)cc23)cc1 [Example 65, 5-Chloro-1H-indazole-3-carboxylic acid [4-(acetylamino-methyl)-phenyl]-amide] |
| ≥ 50% | O=C(NC1CCN(C(=O)C(F)(F)F)CC1)c1n[nH]c2ccccc12 [Example 66, 1H-Indazole-3-carboxylic acid [1-(2,2,2 trifluoro-acetyl)-Piperidin-4-yl]-amide] |
| ≥ 50% | O=C(NC1CCNCC1)c1n[nH]c2ccccc12 [Example 67, 1H-Indazole-3-carboxylic acid piperidin-4-ylamide] |
| ≥ 50% | CS(=O)(=O)N1CCC(NC(=O)c2n[nH]c3ccccc23)CC1 [Example 69, 1H-Indazole-3-carboxylic acid (1-methanesulphonyl-piperidin-4-yl)-amide] |
| ≥ 50% | O=C(Nc1ccc(F)cc1)c1n[nH]c2ccccc12 [Example 70, 1H-Indazole-3-carboxylic acid (4-fluoro-phenyl)-amide] |
| ≥ 50% | O=C(Nc1ccc(N2CCOCC2)cc1)c1n[nH]c2ccc(Cl)cc12 [Example 74] |
| ≥ 50% | O=C(Nc1cccc(-c2nnn[nH]2)c1)c1n[nH]c2ccc(Cl)cc12 [Example 75] |
| ≥ 50% | O=C(Nc1ccccc1)c1n[nH]c2ccc(N3CCCS3(=O)=O)cc12 [Example 86, 5-(1,1-Dioxo-1lambda*6*-isothiazolidin-2-yl)-1H-indazole-3-carboxylic acid phenylamide] |
| ≥ 50% | O=C(Nc1ccccc1)c1n[nH]c2ccc(CCc3ccccc3)cc12 [Example 87, 5-Phenethyl-1H-indazole-3-carboxylic acid phenylamide] |
